Laboratory results taken from ChEMBL document CHEMBL5244230, “Artemisinin-derived hybrids and their anticancer activity” (Eur J Med Chem, 2020).
≈ marks a conversion by molar mass, not a printed value. Where “and” joins values, the source holds several entries; their conditions need not be identical. Equal values may be shown once.

Legend:
[1] = Cytotoxicity against CHO cells; type: toxicity, cell-based, Cricetulus griseus; details: Chinese hamster
TK-10 [2] = assay: Anticancer activity against human TK-10 cells; type: functional, cell-based
MCF7 [3] = assay: Anticancer activity against human MCF7 cells; type: functional, cell-based
UACC-62 [4] = assay: Anticancer activity against human UACC-62 cells assessed as total growth inhibition; type: functional
[5] = Blood clearance in rat at 100 mg/kg, po; type: ADME, organism-based
TK-10 [6] = assay: Anticancer activity against human TK-10 cells assessed as total growth inhibition; type: functional
UACC-62 [7] = assay: Anticancer activity against human UACC-62 cells; type: functional, cell-based
MCF7 [8] = assay: Anticancer activity against human MCF7 cells assessed as total growth inhibition; type: functional
HepG2 [9] = assay: Antiproliferative activity against human HepG2 cells assessed as cell growth inhibition by MTT assay; type: functional, cell-based
A549 [10] = assay: Antiproliferative activity against human A549 cells assessed as cell growth inhibition by MTT assay; type: functional, cell-based
HCT-15 = assay: Antiproliferative activity against human HCT-15 cells assessed as cell growth inhibition by MTT assay; type: functional, cell-based
HepG2 [11] = assay: Antiproliferative activity against human HepG2 cells assessed as reduction in cell viability; type: functional, cell-based
A2780 = assay: Antiproliferative activity against human A2780 cells assessed as reduction in cell viability; type: functional, cell-based
OVCAR-3 = assay: Antiproliferative activity against human OVCAR-3 cells assessed as reduction in cell viability; type: functional, cell-based
Hep 3B2 = assay: Antiproliferative activity against human Hep3B cells assessed as reduction in cell viability; type: functional, cell-based
SGC-7901 = assay: Antiproliferative activity against human SGC-7901 cells assessed as reduction in cell viability measured for 24 hrs; type: functional, cell-based; details: SGC-7901, 24 h
PC-3 = assay: Antiproliferative activity against human PC-3 cells assessed as reduction in cell viability measured for 24 hrs; type: functional, cell-based; details: PC-3, 24 h
A549 [12] = assay: Antiproliferative activity against human A549 cells assessed as reduction in cell viability measured for 24 hrs; type: functional, cell-based; details: A549, 24 h
Prostatic carcinoma cell = assay: Antiproliferative activity against human Prostatic carcinoma cell; type: functional
Melanoma cell line = assay: Antiproliferative activity against human Melanoma cell; type: functional
Leukemia cell = assay: Antiproliferative activity against human Leukemia cell; type: functional
Plasmodium falciparum [13] = assay: Antiplasmodial activity against Plasmodium falciparum HB3; type: functional, organism-based
Plasmodium falciparum [14] = assay: Antiplasmodial activity against Plasmodium falciparum K1; type: functional, organism-based
Colon cell line = assay: Antiproliferative activity against human Colon cell line; type: functional
HT-29 = assay: Antiproliferative activity against human HT-29 cells; type: functional, cell-based
EL4 = assay: Antiproliferative activity against mouse EL4 cells; type: functional, cell-based
HeLa = assay: Cytotoxicity against human HeLa cells assessed as cell viability incubated for 48 hrs by MTT assay; type: functional, cell-based
HSC-2 = assay: Cytotoxicity against human HSC-2 cells; type: functional, cell-based
Ca9-22 = assay: Cytotoxicity against human Ca9-22 cells; type: functional, cell-based
HepG2 [15] = assay: Antiproliferative activity against human HepG2 cells; type: functional, cell-based
HL-60 = assay: Antiproliferative activity against human HL-60 cells; type: functional, cell-based

C[C@H]1[C@@H](OCCN(CCCNc2ccnc3cc(Cl)ccc23)CCO[C@H]2O[C@@H]3O[C@@]4(C)CC[C@H]5[C@H](C)CC[C@@H]([C@H]2C)[C@@]35OO4)O[C@@H]2O[C@@]3(C)CC[C@H]4[C@H](C)CC[C@@H]1[C@@]24OO3
IC50 [1]: 680 nM
GI50 (TK-10 [2]): 30 nM
GI50 (MCF7 [3]): 30 nM
TGI (UACC-62 [4]): 2210 nM
CL/F [5]: 3060 mL/min/kg
TGI (TK-10 [6]): 2210 nM
GI50 (UACC-62 [7]): 30 nM
TGI (MCF7 [8]): 2210 nM

C[C@@H]1CC[C@@H]2[C@]34OO[C@](C)(CC[C@@H]13)O[C@H]4OC(=O)[C@@]21CC(c2ccccc2)=NO1
IC50 (HepG2 [9]): 4.04 µM
IC50 (A549 [10]): 4.04 µM
IC50 (HCT-15): 4.04 µM

CCN(CC)c1ccc2cc(C(=O)N3CCN(CCC[C@H]4O[C@@H]5O[C@@]6(C)CC[C@H]7[C@H](C)CC[C@@H]([C@H]4C)[C@@]57OO6)CC3)c(=O)oc2c1
IC50 (HepG2 [11]; Homo sapiens, HepG2): 2330 nM
IC50 (A2780): 2330 nM
IC50 (OVCAR-3): 2330 nM
IC50 (Hep 3B2): 2330 nM

CCN(CC)c1ccc2cc(C(=O)N3CCN(C(=O)CN4CCN(CCC[C@H]5O[C@@H]6O[C@@]7(C)CC[C@H]8[C@H](C)CC[C@@H]([C@H]5C)[C@@]68OO7)CC4)CC3)c(=O)oc2c1
IC50 (HepG2 [11]; hepg2): 2330 nM and 6280 nM
IC50 (A2780): 2330 nM
IC50 (OVCAR-3): 2330 nM
IC50 (Hep 3B2): 2330 nM

CCN(CC)c1ccc2cc(C(=O)NCCNC(=O)CN3CCN(CCC[C@H]4O[C@@H]5O[C@@]6(C)CC[C@H]7[C@H](C)CC[C@@H]([C@H]4C)[C@@]57OO6)CC3)c(=O)oc2c1
IC50 (HepG2 [11]; hepg2): 2330 nM and 6280 nM
IC50 (A2780): 2330 nM
IC50 (OVCAR-3): 2330 nM
IC50 (Hep 3B2): 2330 nM

COc1ccc(Sc2cccc(C(=O)O[C@@H]3O[C@@H]4O[C@@]5(C)CC[C@H]6[C@H](C)[C@H](OC(=O)c7cccc(Sc8ccc(OC)cc8)c7)C[C@@H]([C@H]3C)[C@@]46OO5)c2)cc1
IC50 (SGC-7901): 1600 nM
IC50 (PC-3): 1600 nM
IC50 (A549 [12]): 1600 nM

COP(=O)(OCC[C@H]1[C@@H](C)O[C@@H]2O[C@@]3(C)CC[C@H]4[C@H](C)CC[C@@H]1[C@@]24OO3)OCC[C@H]1O[C@@H]2O[C@@]3(C)CC[C@H]4[C@H](C)CC[C@@H]([C@H]1C)[C@@]24OO3 (some centres not stated)
GI50 (Prostatic carcinoma cell): < 10 nM
GI50 (Melanoma cell line): < 10 nM
GI50 (Leukemia cell): < 10 nM
IC50 (Plasmodium falciparum [13]): 0.09 nM
IC50 (Plasmodium falciparum [14]): 0.09 nM
GI50 (Colon cell line): < 10 nM

C[C@H]1[C@@H](CCSCC[C@H]2O[C@@H]3O[C@@]4(C)CC[C@H]5[C@H](C)CC[C@@H]([C@H]2C)[C@@]35OO4)O[C@@H]2O[C@@]3(C)CC[C@H]4[C@H](C)CC[C@@H]1[C@@]24OO3
IC50 (HT-29): 17 nM
IC50 (MCF7 [3]): 17 nM
IC50 (EL4): 17 nM

C[C@H]1[C@@H](CCOP(=O)(OCC[C@H]2[C@@H](C)O[C@@H]3O[C@@]4(C)CC[C@H]5[C@H](C)CC[C@@H]2[C@@]35OO4)Oc2ccccc2)O[C@@H]2O[C@@]3(C)CC[C@H]4[C@H](C)CC[C@@H]1[C@@]24OO3 (some centres not stated)
GI50 (Prostatic carcinoma cell): < 10 nM
GI50 (Melanoma cell line): < 10 nM
GI50 (Leukemia cell): 10 nM
IC50 (Plasmodium falciparum [13]): 0.09 nM
IC50 (Plasmodium falciparum [14]): 0.09 nM
GI50 (Colon cell line): < 10 nM

COc1ccc2nc3cc(Cl)ccc3c(N3CCN(CCNCCO[C@H]4O[C@@H]5O[C@@]6(C)CC[C@H]7[C@H](C)CC[C@@H]([C@H]4C)[C@@]57OO6)CC3)c2c1
IC50 (HeLa): 400 nM

C[C@H]1[C@@H](CCC(=O)Nc2cnc3ccccc3c2)O[C@@H]2O[C@@]3(C)CC[C@H]4[C@H](C)CC[C@@H]1[C@@]24OO3
IC50 (HSC-2): 36.9 µM
IC50 (Ca9-22): 49.7 µM

C[C@H]1[C@@H](NC(=O)CCC(=O)NO)O[C@@H]2O[C@@]3(C)CC[C@H]4[C@H](C)CC[C@@H]1[C@@]24OO3
IC50 (MCF7 [3]): 1.28 µg/mL
IC50 (HepG2 [15]): 1.28 µg/mL (≈ 3.21 µM)
IC50 (HL-60): 1.28 µg/mL (≈ 3.21 µM)
